Source: patent US6753424B1, “Conjugates of DNA interacting groups with steroid hormones for use as nucleic acid transfection agents” (priority 1998, dated 2004)

Tests used:
3Y1 cells = assay: Transfection enhancement, CMV-LacZ reporter, CaPO4 transfection of 3Y1 cells; type: cell-based, rat; conditions: 5 μg reporter, 3Y1
Method: Conditions: 3Y1 cells are transfected with an expression vector that is constitutively expressing the reporter gene LacZ (CMV-LacZ). Transfection conditions are identical throughout the various samples (total 10-12 μq DNA for 4 cm dishes). In some samples the DNA used for the transfection cocktail is pre-incubated with various conjugates at the given concentrations. The concentrations are calculated to give from 10−8 to 10−6 M after dispersing the CaPO4 precipitate in the recipient dish (5 ml volume). Transfection is performed O/N and after rinsing of the precipitate the cells are further incubated for 24 hours. LacZ levels are determined from cell extracts with a chemiluminescence LacZ enzyme assay (Galactolight plus. Tropix). The relative luminescence from each extract is given in RLU/mg*1000.
Cell culture. Cells are cultivated in DMEM supplemented with serum and antibiotica according to standard conditions (typically 10% FCS and Pen/Strep as antibiotica). At the day of transfection, cells are trypsinized and seeded at around 25-30% confluency. Cells are allowed to adhere to dish for 4-6 hours prior to transfection.
DNA pre-incubation (example for conditions that give5×10 exp (−6) Molar final concentration of the CL-C4-EtBr conjugate):
5 microgram of CMV-LacZ DNA (in 10 microliter TE) are mixed with 10 nmoles of hormone derivative (10 microliters stock solution) and incubated for 10 min at room temperature (final volume: 20 ul). The DNA/cortisol-C4-ethidum mix is then supplemented with 7 micrograms sheared calf thymus carrier DNA (in 14 microliters TE) and bidistilled water to give a final volume of 125 microliters.
Transfection by CaPO4: to each transfection sample (125 microliter volume DNA+water). 125 microliters of Ca ++ mix are added, and the mix is incubated for 5-10 min at room temperature. Each sample is then supplemented with 250 microliter of Pi-mix (with simultaneous mixing by up-down pipetting) and is further incubated 10 minutes at room temperature after which the cocktail is poured on top of the medium (5 ml) of each cell culture dish (4 cm diameter). The optimal time of incubation after Pi-mix addition is pre-determined by prior evaluation (size of the precipitate) of parallel samples. The precipitate is allowed to deposit onto the cells for 15 hours (incubation of 37 degrees, 5% CO2). The cells are then rinsed twice with Tris-buffered Saline, supplemented with fresh medium and further incubated under standard conditions. To analyze LacZ reporter gene function, the cells are either fixed or harvested 24 hours after precipitate removal.
Variation of parameters: samples in which the C1-C4-EtBr conjugates (or control compounds) are used at different concentrations, are similarly treated, except that the concentration of the stock solution in ethanol is correspondingly varied.

[1] = Stability of C-21 ester versus C-21 urethane derivatives (TLC analysis); type: in vitro ADME; conditions: pH 5, pH 9, proteinase K (pH 7.8, 50 μg/ml), dispase (2.4 U/ml), cellular extracts, DMEM/10% FCS
Method: b) water buffered to pH 9;
c) water buffered to pH 5;
e) proteinase K (pH 7.8; 50 μg/ml);
After 15 hours of incubation each sample is separately extracted with 400 μl Ethyl acetate, evaporated under N2-flow, redissolved in 20 μl Ethyl acetate and analysed by TLC analysis: stationary phase: Alugram SIL G-25 UV254 (Macherey Nagel AG); mobile phase: Ethyl acetate-MeOH-Acetone (3-1-3).

GR-GFP chimera [2] = assay: Nuclear Transfer Induction assay (NTI), monourethane ligands, HeLa cells; type: cell-based; conditions: 1 hr
Method: Conditions: HeLa cells are transiently transfected by CaPO4 with an expression vector encoding a GR-GFP chimera (5 μg in transfection cocktail, 4 cm diameter dishes, DMEM with 3% FCS). After 24 hour expression, ligand is added for 1 hr and cells are fixed with formaldehyde (5 min 4° C.) and inspected by fluorescence microscopy. Fluorescent cells are counted and divided into different classes according to ‘cytoplasmic’ (C) versus ‘nuclear’ (N) localisation of fluorescence.
First column: “Conditions”: Name of compounds added (marked at top: ‘//ligand’), and their concentration (in parentheses) and assay number (01 through 21).
Values are given as percentage of cells displaying the corresponding localisatidn, within each tested condition the sum is 100%.

GR-GFP chimera [3] = assay: Nuclear Transfer Induction assay (NTI), diurethane ligands, CV-1 cells; type: cell-based; conditions: 4 hr
Method: Conditions: CV-1 cells are transiently transfected with DOTAP (Boehringer-Mannheim) with an expression vector encoding a GR-GFP chimera (see 8.1). After 36 hours expression, ligand is added for 4 hr and cells are fixed and counted as given in 8.1.

HUH-7 cells = assay: Transfection enhancement, CMV-LacZ reporter, HUH-7 cells; type: cell-based, human; set-up: key to net: net = (RLU:protein)×1000 − 600 (mock transfection level)
Method: Conditions: HUH-7 cells are human hepatoma cells that contain substantial amounts of glucocorticoid receptor. The cells are transfected with an expression vector that is constitutively expressing the reporter gene LacZ (CMV-LacZ). Transfection conditions and analysis of LacZ reporter are the same as described in Example 7 legend. Transfection is performed O/N and after rinsing of the precipitate the cells are further incubated for 24 hours. LacZ levels are determined from cell extracts with a chemiluminescence LacZ enzyme assay (Galactolight plus, Tropix). The relative luminescence from each extract is given. Each value represents an individual extract. “Induction”: relative reporter gene activity (values divided by value of assay in lane 9, true negative control for DNA liganding). rel/RLU=(RLU:protein)×1000; net=rel/RLU−600 (600=rel/RLU value approximately corresponding to rel/RLU value of mock transfection).

[4] = tested on: CV-1 cells reconstituted with exogenous GR; assay: Transfection enhancement, CMV-LacZ reporter, CV-1 cells reconstituted with exogenous GR; type: cell-based, monkey
Method: Conditions: CV-1 cells are first infected with an adenovirus system allowing expression of GR in >90% of the cells (S. B. Verca, unpublished). After 24 hours the cells are; transfected with an expression vector that is constitutively expressing the reporter gene LacZ (CMV-LacZ). Transfection conditions and analysis of LacZ reporter are the same as described in Example 7 legend. Transfection is performed O/N and after rinsing of the precipitate the cells are further incubated for 24 hours. LacZ levels are determined from cell extracts with a chemiluminescence LacZ enzyme assay (Galactolight plus, Tropix). The relative luminescence from each extract is given. Each value represents an individual extract. “Induction”: relative reporter gene activity (values divided by value of assay in lane 9, true negative control for liganding), rel/RLU=(RLU:protein)×1000, net=rel/RLU−600 (600=rel/RLU value approximately corresponding to rel/RLU value of mock transfection).

COC(=O)CCNC(=O)OCC(=O)[C@@]1(O)CCC2C3CCC4=CC(=O)CCC4(C)C3C(O)CC21C (stereo partly shown) [CL-C4]
light units (relative luminescence, LacZ) (3Y1 cells; ligand 10^-6M): 3750 RLU/mg*1000
light units (relative luminescence, LacZ) (3Y1 cells; ligand 10^-7M): 1625 RLU/mg*1000
light units (relative luminescence, LacZ) (3Y1 cells; ligand 10^-8M): 2500 RLU/mg*1000

Cc1oc2c(C)c3oc(=O)cc(C)c3cc2c1CNC(=O)CCCCCCCCCCNC(=O)OCC(=O)[C@@]1(O)CCC2C3CCC4=CC(=O)CCC4(C)C3C(O)CC21C (stereo partly shown) [CL-C12-Pso]
stability of urethane bond between steroid moiety, spacer and DNA binder [1]: stable
C < N, percentage of cells (GR-GFP chimera [2]; ligand 1.10-6M): 53%
C << N, percentage of cells (GR-GFP chimera [2]; ligand 1.10-6M): 22%
C = N, percentage of cells (GR-GFP chimera [2]; ligand 1.10-6M): 25%
C > N, percentage of cells (GR-GFP chimera [2]; ligand 1.10-6M): 0%
C >> N, percentage of cells (GR-GFP chimera [2]; ligand 1.10-6M): 0%
C < N, percentage of cells (GR-GFP chimera [2]; ligand 1.10-7M): 3%
C << N, percentage of cells (GR-GFP chimera [2]; ligand 1.10-7M): 0%
C = N, percentage of cells (GR-GFP chimera [2]; ligand 1.10-7M): 52%
C > N, percentage of cells (GR-GFP chimera [2]; ligand 1.10-7M): 40%
C >> N, percentage of cells (GR-GFP chimera [2]; ligand 1.10-7M): 5%

C[C@@H]1C[C@H]2[C@@H]3CCC4=CC(=O)C=C[C@]4(C)[C@@]3(F)[C@@H](O)C[C@]2(C)[C@@]1(O)C(=O)CO [DEX, Dexamethasone, reference compound]
C < N, percentage of cells (GR-GFP chimera [3]; ligand 5.10-6M): 0.5%
C << N, percentage of cells (GR-GFP chimera [3]; ligand 5.10-6M): 99.5%
C = N, percentage of cells (GR-GFP chimera [3]; ligand 5.10-6M): 0%
C > N, percentage of cells (GR-GFP chimera [3]; ligand 5.10-6M): 0%
C >> N, percentage of cells (GR-GFP chimera [3]; ligand 5.10-6M): 0%
C < N, percentage of cells (GR-GFP chimera [3]; ligand 5.10-7M): 1%
C << N, percentage of cells (GR-GFP chimera [3]; ligand 5.10-7M): 99%
C = N, percentage of cells (GR-GFP chimera [3]; ligand 5.10-7M): 0%
C > N, percentage of cells (GR-GFP chimera [3]; ligand 5.10-7M): 0%
C >> N, percentage of cells (GR-GFP chimera [3]; ligand 5.10-7M): 0%
C < N, percentage of cells (GR-GFP chimera [3]; ligand 5.10-8M): 5%
C << N, percentage of cells (GR-GFP chimera [3]; ligand 5.10-8M): 95%
C = N, percentage of cells (GR-GFP chimera [3]; ligand 5.10-8M): 0%
C > N, percentage of cells (GR-GFP chimera [3]; ligand 5.10-8M): 0%
C >> N, percentage of cells (GR-GFP chimera [3]; ligand 5.10-8M): 0%
C < N, percentage of cells (GR-GFP chimera [3]; ligand 5.10-9M): 42.1%
C << N, percentage of cells (GR-GFP chimera [3]; ligand 5.10-9M): 57.5%
C = N, percentage of cells (GR-GFP chimera [3]; ligand 5.10-9M): 0.3%
C > N, percentage of cells (GR-GFP chimera [3]; ligand 5.10-9M): 0%
C >> N, percentage of cells (GR-GFP chimera [3]; ligand 5.10-9M): 0%
RLU (HUH-7 cells; ligand 10-6, HUH-7): 238837
net (HUH-7 cells; ligand 10-6, HUH-7): 185
rel/RLU (HUH-7 cells; ligand 10-6, HUH-7): 314.7
net (HUH-7 cells; ligand 10-7, HUH-7): 227
rel/RLU (HUH-7 cells; ligand 10-7, HUH-7): 357.3
C < N, percentage of cells (GR-GFP chimera [2]; ligand 1.10-6M): 29%
C << N, percentage of cells (GR-GFP chimera [2]; ligand 1.10-6M): 71%
C = N, percentage of cells (GR-GFP chimera [2]; ligand 1.10-6M): 0%
C > N, percentage of cells (GR-GFP chimera [2]; ligand 1.10-6M): 0%
C >> N, percentage of cells (GR-GFP chimera [2]; ligand 1.10-6M): 0%
C < N, percentage of cells (GR-GFP chimera [2]; ligand 1.10-7M): 30%
C << N, percentage of cells (GR-GFP chimera [2]; ligand 1.10-7M): 67%
C = N, percentage of cells (GR-GFP chimera [2]; ligand 1.10-7M): 3%
C > N, percentage of cells (GR-GFP chimera [2]; ligand 1.10-7M): 0%
C >> N, percentage of cells (GR-GFP chimera [2]; ligand 1.10-7M): 0%

Cc1oc2c(C)c3oc(=O)cc(C)c3cc2c1CNC(=O)CCNC(=O)OCC(=O)[C@@]1(O)[C@H](C)CC2C3CCC4=CC(=O)C=CC4(C)[C@@]3(F)C(O)CC21C (stereo partly shown) [DEX-C4-Pso]
stability of urethane bond between steroid moiety, spacer and DNA binder [1]: stable
C < N, percentage of cells (GR-GFP chimera [2]; ligand 1.10-6M): 15%
C << N, percentage of cells (GR-GFP chimera [2]; ligand 1.10-6M): 5%
C = N, percentage of cells (GR-GFP chimera [2]; ligand 1.10-6M): 60%
C > N, percentage of cells (GR-GFP chimera [2]; ligand 1.10-6M): 20%
C >> N, percentage of cells (GR-GFP chimera [2]; ligand 1.10-6M): 0%
C < N, percentage of cells (GR-GFP chimera [2]; ligand 1.10-7M): 5%
C << N, percentage of cells (GR-GFP chimera [2]; ligand 1.10-7M): 0%
C = N, percentage of cells (GR-GFP chimera [2]; ligand 1.10-7M): 40%
C > N, percentage of cells (GR-GFP chimera [2]; ligand 1.10-7M): 35%
C >> N, percentage of cells (GR-GFP chimera [2]; ligand 1.10-7M): 20%

Cc1oc2c(C)c3oc(=O)cc(C)c3cc2c1CNC(=O)OCCOCCNC(=O)OCCOCCNC(=O)OCC(=O)[C@@]1(O)[C@H](C)CC2C3CCC4=CC(=O)C=CC4(C)[C@@]3(F)C(O)CC21C (stereo partly shown) [DEX-O-O-PSO]
stability of urethane bond between steroid moiety, spacer and DNA binder [1]: stable

CC[n+]1c(-c2ccccc2)c2cc(N)ccc2c2ccc(N)cc21 [EtBr, Ethidium Bromide, reference compound]
RLU (HUH-7 cells; ligand 10-6, HUH-7): 168920
induction (relative reporter gene activity, divided by value of lane 9) (HUH-7 cells; ligand 10-6, HUH-7): 1.49
net (HUH-7 cells; ligand 10-6, HUH-7): 103
rel/RLU (HUH-7 cells; ligand 10-6, HUH-7): 233.3
light units (relative luminescence, LacZ) (3Y1 cells; ligand 10^-6M): 2250 RLU/mg*1000
light units (relative luminescence, LacZ) (3Y1 cells; ligand 10^-7M): 2500 RLU/mg*1000
light units (relative luminescence, LacZ) (3Y1 cells; ligand 10^-8M): 2750 RLU/mg*1000
RLU ([4]; ligand 10-6, CV-1 with GR): 851
induction (relative reporter gene activity, divided by value of lane 9) ([4]; ligand 10-6, CV-1 with GR): 0.77
net = rel/RLU−600 ([4]; ligand 10-6, CV-1 with GR): 626.2
rel/RLU = (RLU:protein)×1000 ([4]; ligand 10-6, CV-1 with GR): 1226.2
RLU ([4]; ligand 10-7, CV-1 with GR): 1632
induction (relative reporter gene activity, divided by value of lane 9) ([4]; ligand 10-7, CV-1 with GR): 2.01
net = rel/RLU−600 ([4]; ligand 10-7, CV-1 with GR): 1626
rel/RLU = (RLU:protein)×1000 ([4]; ligand 10-7, CV-1 with GR): 2226.5
